Consider one compound from patent publication US20080026073A1, “METHOD AND COMPOSITION FOR LITHIUM ADDITIVE IN TREATMENT OF GLUTAMATE TOXICITY” (priority 2006, published 2008).

Each structure is given as a SMILES string.

The test system of the test is retinal ganglion cells. Briefly: NMDA-induced glutamate toxicity mouse model for glaucoma: count of surviving retinal ganglion cells after oral feeding. The test is classed as in vivo, mice. To be noted: for survival efficacy (percent of retinal ganglion cells that survive relative to no treatment): Example 3, FIG. 3, separate mouse pools.

As to `O=C([O-])c1cc(=O)[nH]c(=O)[nH]1.[Li+]` [Lithium, lithium orotate], the “increase in the surviving ganglion cells” value (Example 1, FIG. 1, mice, oral ingestion, human equivalent dosage Lithium 5.8 mg lithium orotate per day, St. Johns Wort 2-4 grams per day) was “about 15%”. Further, where the note is “Example 2, FIG. 2, mice, gavage eight days, intravitreal NMDA 150 mM 0.5 microliter after six days, Li orotate 63 μg/day, herb 32 mg per mouse per day”, the “survival rate of retinal ganglion cells” value is given as “about 15%”. The “survival efficacy (percent of retinal ganglion cells that survive relative to no treatment)” value was “approximately 13%” (1/5th the dosage, human equivalent 1.16 mg lithium orotate) and “approximately 8%” (5 times the dosage, human equivalent 29 mg lithium orotate).
